According to US5330992A, “1-cyclopropyl-4-pyridyl-quinolinones” (priority 1992, dated 1994):

How the values were obtained:
[1] = In vivo antitumor assay, Panc03(sc); design: species or system mouse; conditions: mouse, in vivo
Excerpt: (§1) Mice: Inbred: C3H/He and NCR-nu; and Hybrids: B6D2Fl (C57BL/6 females X DBA/2 males, CD2Fl (Balb/c females X DBS/2 males) and B6x C3fl (C57BL/6 x C3H) were bred at Wayne State University from strained obtained from the Frederick Cancer Research Facility, Frederick, Md. or purchased from commercial suppliers.
(§2) Tumors: Murine Tumor: P388 and an adriamycin-resistant (ADR) subline P388/ADR leukemia and the following transplantable solid tumors of mice were used for in Vivo testing: B16 melanoma (B16), pancreatic ductal adenocarcinoma No. 03 (Panc 03), colon adenocarcinoma No. 38 (colo 38), mammary ductal adenocarcinoma No. 16/C (Mam16) and an adriamycin-resistantsubline Mam16C/ADR. Human tumor: A single human tumor, mammary carcinoma MX-1 (MX1) was used for in vivo testing. All tumors are in the Developmental Therapeutics Program frozen tumor respository, maintained by the Biological Testing Branch, Frederick Md. Each has a detailed description, code identification number, and list of references at the National Tumor Repository. Murine tumors were maintained in the mouse strain of origin and were transplanted in the appropriate F1 hydrid (or the strain of origin) for therapy trials. Human mammary carcinoma MX-1 MX1) was maintained as a subcutaneous implant in either athymic Swiss (Cr: NIH(S)-nu) or athymic random bred (NCR-nu) mice and transplanted in NCR-nu for therapy trials.
(§3) Chemotherapy: For pancreatic ductal adenocarcinoma No. 3, colon adenocarcinoma No. 38 (colo38), lung carcinoma No. 12 (LC12) and both adriamycin-sensitive (RP) and -resistant ADR) mammary ductal adenocarcinoma No. 16 (Mam16) tumors, the following methods were used to help ensure a more uniform tumor burden per mouse (thus reducing the requirement for greater numbers of mice per group), bilateral tumor implants were used. The animals necessary to begin an experiment were pooled, implanted bilaterally s.c. on day zero with 30-60-mg tumor fragments using a 12-gauge trocar, and again pooled before randomization to the various treatment and control groups. Chemotherapy was started within three days after tumor implantation while the number of cells per mouse was relatively small (1×10^7 […]).
(§4) Quantitative end points used assess antitumor activity included % Increased Life Span (% ILS), Tumor Cell Kill (Log10 kill), and Tumor Growth Inhibition (T/C). Long Term Survivors (45 or 60 day) were excluded from calculations of % ILS and Tumor Cell Kill.
(§5) The log10 cell kill was calculated from the following formula: [formula] where T-C is the tumor difference in the median day of death between the treated (T) and the control (C) groups and Td is the tumor doubling time (in days), the latter estimated from the best fit straight line from a log-linear growth plot of the control-group tumors in exponential growth. The conversion of the T-C values to log10 cell kill is possible because the Td for tumors regrowing post-treatment approximated the Td values of the tumors in untreated control mice.
(§6) Tumors were measured with a caliper once or twice weekly (as needed) until either tumors exceeded 1600 mg or cure was assured. Tumor weights were estimated from two-dimensional measurements: Tumor Weight (mg)=(a×b^2) / 2, where a and b are the tumor length and width (nun) respectively. Measurements were carried out simultaneously in both treatment and control groups. When the control group tumors reached approximately 750-1500 mg in size (median of group), the median tumor weight of each group was determined (including zeros). The T/C value in percent is an indiation of antitumor effectiveness. The % T/C was calculated from the following formula for solid murine tumor models: [formula] where T and C are median tumor weights of the treatment and control groups, respectively. A T/C equal to or less than 42% is considered significant antitumor activity. […]

[2] = system: pancreatic ductal adenocarcinoma No. 03 (Panc 03); assay: In vivo antitumor assay, Panc03(sc); design: species or system mouse
Excerpt: as §1, §2, §3, §4, §5, §6

[3] = system: P388 murine leukemia cells; assay: Malignant cell cytotoxicity, continuous 48-hour exposure (Coulter Counter); format: cell-based; conditions: Mus musculus, read-out: IC50 P388 cont. exp.
Protocol: (§7) Examples of compound I having Topo II activity were tested for malignant cell cytotoxicity. In vitro cytotoxicity was assayed by determining cell survival following exposure of P388 murine leukemia cells to a range of test compound concentrations. Cytotoxicity was quantitated following either a one-hour exposure or continuous exposure of P388 cells to test compound.
(§8) Cytotoxicity following a one-hour exposure of cells to drug was assayed by quantitating clonogenic cell survival according to a published procedure [Freshney, R. L. (1987) Culture of Animal Cells. A Manual of Basic Technique. Wiley-Liss Inc., New York, N.Y., pp. 140-144]. Briefly, following drug exposure cells were plated in soft agar and incubated (37°, 5% CO2) for 7-10 days during which time viable cells form visible colonies. Cytotoxicity following continuous exposure of cells to test compound was assayed by quantitating total P388 cells on a Coultier Counter following a 48-hour co-incubation of test compound with cells. P388 cells were maintained in log phase throughout the duration of cytotoxicity assays.
(§9) The percentage of cells surviving relative to an untreated control was graphed as a function of increasing drug concentration.

[4] = system: P388 murine leukemia cells; assay: Malignant cell cytotoxicity, one-hour exposure (clonogenic survival in soft agar); format: cell-based; conditions: Mus musculus, 1 hr exposure, read-out: IC50 P388 1 hr. exp.
Protocol: as §7, §8, §9

[5] = In vivo antitumor assay, B16(ip); design: species or system mouse; conditions: mouse, in vivo, drug route ip, qd 1,5,9
Excerpt: as §1, §2
(§10) For P388 and P388/ADR leukemia studies the tumor cells were implanted either IP or intravenously (IV) on day zero and treatment was started on day one. For B16 melanoma (B16) studies, the tumor cells were implanted IP on day zero and treatment was started on day one. Tirered controls were also included to facilitate the calculation of tumor cell kill. For mammary carcinoma MX-1 studies, tumors were implanted with 1) subcutaneously (sc) (14-mg fragment of s.c. donor tumor) in the axillary region or 2) under the subrenal capsule (src) (10×10×10 ocular micrometer unit fragment of s.c. donor tumor). Treatment started on the day after subrenal capsule tumor implant or when the subcutaneous tumor implant had reached 100-700 mg.
as §4
(§11) Endpoints were calculated as follows: % ILS [formula] where Dt is the median day of death for treated and Dc is the median day of death for control groups. A % ILS ≥20 or ≥25 for P388 and B16 intraperitoneal models, respectively, is indicative of a significant degree of antitumor activity. A % ILS ≥75 or ≥50 for P388 and B16 intraperitoneal models, respectively, is indicative of a high degree of antitumor activity and is the level used by National Cancer Institute to justify further development if other requirements are met (termed DN-2 level activity). Minimum quantitative activity limits for additional P388 models (e.g. P388/ADR and P388, IJV) have not been defined. However, the activity limits specified for the intraperitoneal models may be applied as in the majority of instances these models are found to be signficantly […] challenging.
as §5

B16 melanoma (B16) = assay: In vivo antitumor assay, B16(ip); design: species or system mouse; conditions: drug route ip; for ILS %: qd 1,5,9, increased life span; for LOG KILL: qd 1,5,9, log10 cell kill
Excerpt: as §1, §2, §10, §4, §11, §5

[6] = drug route iv, Ex 26 qd 4-11, Ex 30 qd 3-11, Ex 33 qd 3-4,7,10, read-out: MTD
[7] = drug route iv, Ex 26 qd 4-11, Ex 30 qd 3-11, Ex 33 qd 3-4,7,10

| Compound | MTD [1, 6] [mg/kg] | MTD ([1]; drug route sc, Ex 26 qd 3,5-7 bid 4, read-out: MTD) [mg/kg] | T/C % [2, 7] [%] | LOG KILL ([2]; drug route iv, qd 4-11, log10 cell kill) | T/C % ([2]; drug route sc, Ex 3 qd 3-12, Ex 26 qd 3,5-7 bid 4) [%] | IC50 [3] [nM] | IC50 [4] [nM] | MTD [5] [mg/kg] | ILS % (B16 melanoma (B16)) [%] | LOG KILL (B16 melanoma (B16)) |
| --- | --- | --- | --- | --- | --- | --- | --- | --- | --- | --- |
| Cc1cc(-c2c(F)cc3c(=O)c(Cc4c(O)cccc4O)cn(C4CC4)c3c2F)cc(C)n1 [Example 26, 1-Cyclopropyl-6,8-difluoro-7-[2,6-dimethyl-4-pyridinyl]-3-[2,6-dihydroxyphenylmethyl]-1,4-dihydroquinoline-4-one] | 12 | 840 | 0 | 1.7 | 19 | 55 | 250 | 8.1 | 94 | 2.2 |
| Cc1cc(-c2c(F)cc3c(=O)c(Cc4ccccc4O)cn(C4CC4)c3c2F)cc(C)n1 [Example 30] | 235 | – | 5 | – | – | 290 | 670 | 304 | 88 | 2.0 |
| Cc1cc(-c2c(F)cc3c(=O)c(Cc4ccc(O)cc4O)cn(C4CC4)c3c2F)cc(C)n1 [Example 33] | 19 | – | 73 | – | – | 61 | 210 | 19 | 94 | 2.2 |
